≈ marks a conversion by molar mass, not a printed value. Like-named read-outs stand apart in the source and are kept apart here. Marks after values point to notes of the source that are not given here.
Legend:
[1] = test system: MDR Providencia stuartii; test: MIC-assay, Mueller-Hinton broth with G-block alginate, 384-well, OD600 (Table 11); type: cell-based; settings: Providencia stuartii (IR57 India, V7) MDR
Excerpt: (§1) Minimum inhibitory concentration (MICs) of different antibiotics for strains of E. coli and Providencia stuartii displaying MDR phenotypes in the presence of varying concentrations of OligoCF-5/20 (0-10%). (MIC values are expressed in μg ml^−1).

[2] = test system: strains of E. coli displaying MDR phenotypes; test: as above; type: cell-based; settings: Escherichia coli, Escherichia coli (5702, Wales, V11) MDR, read-out: MIC
Excerpt: as §1

[3] = test system: V22 6056 Acinetobacter; test: MIC assay, CAMHB with alginate oligomer, no visible growth; type: cell-based, Acinetobacter lwoffii; settings: Table 5, V22 MDR Acin. lwoff
[4] = test system: Acinetobacter baumannii MDR ACB from Libya (V4); test: as above; type: cell-based; settings: Acinetobacter baumannii, Table 4, V4 MDR (Libya), read-out: MIC
Excerpt: (§2) The study described in Example 1 was repeated with the following strains of bacteria and antibiotics as detailed in Tables 4, 5 and 6.
The study described in Example 1 was repeated with the following strains of Acinetobacter baumannii, antibiotics and M-block alginate oligomer in place of OligoG CF-5/20 as detailed in Table 7. The M-block oligomer is 100% M with a DPn of 15 to 18,

[5] = test system: V11 5702 (Wales) E. coli; test: as above; type: cell-based; settings: Escherichia coli; Table 5; V11 MDR E.coli; OligoCF-5/20 0G; read-out: MIC
[6] = test system: V9 (Egypt) Acinetobacter baumannii; test: as above; type: cell-based; settings: Table 5, V9 MDR Acin. baum
[7] = test system: V23 1322 Burkholderia cepacia; test: as above; type: cell-based
[8] = test system: Pseudomonas aeruginosa MDR 301 from Poland (V2); test: as above; type: cell-based; settings: Pseudomonas aeruginosa, Table 4, V2 MDR (Pol.), read-out: MIC
[9] = test system: V5 AIM-1 E. coli; test: as above; type: cell-based; settings: Escherichia coli, Table 4, V5 MDR E. coli
Excerpt: as §2

CC[C@H]1OC(=O)[C@H](C)[C@@H](O[C@H]2C[C@@](C)(OC)[C@@H](O)[C@H](C)O2)[C@H](C)[C@@H](O[C@@H]2O[C@H](C)C[C@H](N(C)C)[C@H]2O)[C@](C)(O)C[C@@H](C)[C@@H]2N[C@@H](COCCOC)O[C@H]([C@H]2C)[C@]1(C)O [Dirithromycin]
MIC ([1]; G-block (OligoCF-5/20) 0%): 8 µg/mL (≈ 9.58 µM) | MIC ([1]; G-block (OligoCF-5/20) 2%): 4 µg/mL (≈ 4.79 µM) | MIC ([1]; G-block (OligoCF-5/20) 6%): 4 µg/mL (≈ 4.79 µM) | MIC ([1]; G-block (OligoCF-5/20) 10%): 2 µg/mL (≈ 2.39 µM) | MIC ([2]; G-block (OligoCF-5/20) 0%): 128 µg/mL (≈ 153 µM) | MIC ([2]; G-block (OligoCF-5/20) 2%): 64 µg/mL (≈ 76.6 µM) | MIC ([2]; G-block (OligoCF-5/20) 6%): 32 µg/mL (≈ 38.3 µM) | MIC ([2]; G-block (OligoCF-5/20) 10%): 64 µg/mL (≈ 76.6 µM)

CC[C@H]1OC(=O)[C@H](C)[C@@H](O[C@H]2C[C@@](C)(OC)[C@@H](O)[C@H](C)O2)[C@H](C)[C@@H](O[C@@H]2O[C@H](C)C[C@H](N(C)C)[C@H]2O)[C@](C)(O)C[C@@H](C)C(=O)[C@H](C)[C@@H](O)[C@]1(C)O [Erythromycin]
MIC ([3]; Acinetobacter, OligoCF-5/20 0G, read-out: MIC): < 0.5 µg/mL | MIC ([3]; OligoCF-5/20 +2% G): <0.5 µg/mL | MIC ([3]; OligoCF-5/20 +6% G): <0.5 µg/mL | MIC ([3]; OligoCF-5/20 +10% G): <0.5 µg/mL | MIC ([1]; G-block (OligoCF-5/20) 0%): 32 µg/mL (≈ 43.6 µM) | MIC ([1]; G-block (OligoCF-5/20) 2%): 16 µg/mL (≈ 21.8 µM) | MIC ([1]; G-block (OligoCF-5/20) 6%): 16 µg/mL (≈ 21.8 µM) | MIC ([1]; G-block (OligoCF-5/20) 10%): 16 µg/mL (≈ 21.8 µM) | MIC ([4]; OligoCF-5/20 0G): 8 µg/mL (≈ 10.9 µM) | MIC ([4]; OligoCF-5/20 +2% G): 2 µg/mL (≈ 2.73 µM) | MIC ([4]; OligoCF-5/20 +6% G): ≤ 1 µg/mL | MIC ([4]; OligoCF-5/20 +10% G): ≤ 1 µg/mL | MIC [5]: 512 µg/mL (≈ 698 µM) | MIC ([6]; Acinetobacter baumannii, OligoCF-5/20 0G, read-out: MIC): 8 µg/mL (≈ 10.9 µM) | MIC ([6]; OligoCF-5/20 +2% G): 4^† μg/ml | MIC ([6]; OligoCF-5/20 +6% G): 1^† μg/ml | MIC ([6]; OligoCF-5/20 +10% G): <0.5^† μg/ml | MIC ([7]; Burkholderia cepacia, Table 5, V23 MDR Burk cep, OligoCF-5/20 0G, read-out: MIC): 512 µg/mL (≈ 698 µM) | MIC ([7]; Burkholderia cepacia, Table 6, V23, Experiment 1 (18-03-10), OligoCF-5/20 0G, read-out: MIC): 512 µg/mL (≈ 698 µM) | MIC ([7]; Burkholderia cepacia, Table 6, V23, Experiment 3 (19-03-10), OligoCF-5/20 0G, read-out: MIC): > 512 µg/mL | MIC ([7]; Table 5, V23 MDR Burk cep, OligoCF-5/20 +10% G): 16^† μg/ml | MIC ([7]; Table 6, V23, Experiment 1 (18-03-10), OligoCF-5/20 +10% G): 64^† μg/ml | MIC ([7]; Table 6, V23, Experiment 2 (18-03-10), OligoCF-5/20 +6% G): 64^† μg/ml | MIC ([7]; Table 6, V23, Experiment 2 (18-03-10), OligoCF-5/20 +10% G): 64^† μg/ml | MIC ([7]; Table 6, V23, Experiment 3 (19-03-10), OligoCF-5/20 +6% G): 64^† μg/ml | MIC ([7]; Table 6, V23, Experiment 3 (19-03-10), OligoCF-5/20 +10% G): 16^† μg/ml | MIC ([8]; OligoCF-5/20 0G): 128 µg/mL (≈ 174 µM) | MIC ([8]; OligoCF-5/20 +6% G): 64 µg/mL (≈ 87.2 µM) | MIC ([8]; OligoCF-5/20 +10% G): 16 µg/mL (≈ 21.8 µM) | MIC ([9]; OligoCF-5/20 0G): 4 µg/mL (≈ 5.45 µM) | MIC ([9]; OligoCF-5/20 +2% G): 4 µg/mL (≈ 5.45 µM) | MIC ([9]; OligoCF-5/20 +6% G): ≤ 1 µg/mL | MIC ([9]; OligoCF-5/20 +10% G): ≤ 1 µg/mL

C[C@@H](O)[C@H]1C(=O)N2C(C(=O)O)=C(SCCN=CN)C[C@H]12 [Imipenem]
MIC ([1]; G-block (OligoCF-5/20) 0%): 16 µg/mL (≈ 53.4 µM) | MIC ([1]; G-block (OligoCF-5/20) 2%): 16 µg/mL (≈ 53.4 µM) | MIC ([1]; G-block (OligoCF-5/20) 6%): 16 µg/mL (≈ 53.4 µM) | MIC ([1]; G-block (OligoCF-5/20) 10%): 8 µg/mL (≈ 26.7 µM) | MIC ([2]; G-block (OligoCF-5/20) 0%): < 2 µg/mL | MIC ([2]; G-block (OligoCF-5/20) 2%): < 2 µg/mL | MIC ([2]; G-block (OligoCF-5/20) 6%): < 2 µg/mL | MIC ([2]; G-block (OligoCF-5/20) 10%): < 2 µg/mL
